{"source": "patent US11801256B2", "about": "“Antidepressant-psilocybin co-treatment to assist psychotherapy” (Universitätsspital Basel, priority 2021, dated 2023)", "key": {"[1]": {"system": "healthy subjects", "experiment": "Subjective effects, visual analog scales (VAS), clinical study", "assay_type": "in vivo, human", "method": "Treatment order was random and counterbalanced.\nStudy procedures: Subjects took part in a 2-hour screening session, two 9.5-hour test sessions where the psilocybin was administered and a 1-hour end-of-study visit. The subjects were informed about the study both verbally and by the approved written consent form regarding the altered state of consciousness, the study procedures and associated risks. The investigator and the subject both personally signed and dated the consent form as confirmation of consent. Subjects were screened using a semi-structured clinical interview for DSM-IV (Diagnostic and Statistical Manual Version 4) (Wittchen et al., 1997) to exclude those with a personal or family (first-degree relative) axis I major psychiatric disorder (acute or past) or a history of illicit drug dependence. Axis I major psychiatric disorders included also addiction disorders. The sessions were conducted in a calm standard hospital room. Only one research subject and one investigator were present during the test sessions. The test sessions began at 9 AM. The subjects then underwent baseline measurements. […] Psilocybin was administered at 11:00 AM. The outcome measures were repeatedly assessed for 7 hours. The subjects were under constant supervision by an investigator until 6 PM. Thus, the subjects were never alone during the 7 hours after drug administration. The subjects were sent home at 6:30 PM.\nSubjective Effects Questionnaire (Visual Analog Scales, VAS): VAS was repeatedly used to assess subjective alterations in consciousness over time. Single scales were presented as 100 mm horizontal lines marked with “not at all” on the left and “extremely” on the right. The following VAS items were used: “any drug effect”, “good drug effect”, “bad drug effect”, “drug liking”, “drug high”, “stimulated”, “fear”, “happy”, “content”, “trust”, “talkative”, “perception of time”, “open”, “concentration”, “speed of thinking”, “feeling close to others”, “wanting to be hugged”, “wanting to hug someone”, “desire to be alone”, “desire to be with others”, and “ego dissolution”. The VASs were presented as 100-mm horizontal lines (0-100%), marked from “not at all” on the left to “extremely” on the right. Some VASs were bidirectional (±50%). Marked from “not at all” on the left (−50), to “normal” in the middle (0), to “extremely” on the right (+50).\nThe criterion for significance was p<0.05."}, "[2]": {"system": "healthy subjects", "experiment": "QTc time", "assay_type": "in vivo, human", "details": "escitalopram pretreatment compared with placebo", "excerpt": "Exclusion criteria: Chronic or acute medical condition, including a history of seizures. Current or previous major psychiatric disorder (e.g. psychotic disorders, mania/hypomania, anxiety disorders, and substance abuse). Psychotic disorder in first-degree relatives, not including psychotic disorders secondary to an apparent medical reason, e.g. brain injury, dementia, or lesions of the brain. Illicit substance use (with the exception of cannabis) more than 10 times or any time within the previous two months. History of an angle closure glaucoma. Pregnant or nursing women. Participation in another clinical trial (currently or within the last 30 days). […] A corrected QT time (QTc), calculated by Bazett's formula, of over 450 milliseconds in males and over 470 milliseconds in females. Tobacco smoking (>10 cigarettes/day). Consumption of alcoholic drinks (>10 drinks/week). Bodyweight <45 kg."}, "[3]": {"details": "escitalopram 14 days pretreatment vs placebo, P=0.004"}, "[4]": {"details": "escitalopram pretreatment compared with placebo pretreatment (summary)"}}}
{"smiles": "CN(C)CCC[C@@]1(c2ccc(F)cc2)OCc2cc(C#N)ccc21", "note": "[Escitalopram, escitalopram]", "values": [{"measurement": "effect on good drug effects of psilocybin", "setting": "[1]; escitalopram 14 days pretreatment vs placebo", "result": "did not significantly reduce"}, {"measurement": "reduction of peak anxiety induced by psilocybin", "setting": "[1]; [3]", "result": 50, "unit": "%"}, {"measurement": "reduction of peak bad drug effects induced by psilocybin", "setting": "[1]; [3]", "result": 50, "unit": "%"}, {"measurement": "effect on any drug effects in response to psilocybin", "setting": "[1]; escitalopram 14 days pretreatment vs placebo, P=0.015", "result": "slightly, but significantly reduced"}, {"measurement": "effect on the response to psilocybin, overall", "setting": "[1]; escitalopram pretreatment 14 days (10 mg 7 days, 20 mg 7 days) before 25 mg psilocybin, compared to placebo pretreatment", "result": "only a small effect"}, {"measurement": "effect on psilocybin-induced fear", "setting": "[1]; escitalopram pretreatment compared to psilocybin alone (summary)", "result": "reduced"}, {"measurement": "effect on anxiety of psilocybin (in words)", "setting": "[1]; [4]", "result": "significantly reduced"}, {"measurement": "effect on bad drug effects of psilocybin (in words)", "setting": "[1]; [4]", "result": "significantly reduced"}, {"measurement": "effect on the positive mood effects of psilocybin", "setting": "[1]; [4]", "result": "no relevant effect"}, {"measurement": "QTc time before or after psilocybin administration", "setting": "[2]", "result": "did not alter"}]}
